From patent US10285961B2, “Organic acids as agents to dissolve calcium minerals in pathological calcification and uses thereof” (University of Houston System, priority 2014, dated 2019)
Entries after “also recorded” stand apart in the source; their conditions may differ.

Assays:
[1] = Calcium ion selective electrode (ISE) measurement of COM crystallization kinetics; details: synthetic versus extracted hydroxycitrate, slope of free calcium ion depletion relative to control
Description: A calcium ion selective electrode (ISE, ThermoScientific with Orion 9720BNWP Ionplus® electrode) was used to measure the effect of organic growth modifiers (OGMs) on the kinetics of COM crystallization which measures the concentration of free calcium ions in solution. Samples were prepared in the similar manner as COM bulk crystallization. Final solution composition was set to be 0.5 mM CaCl2: 0.5 mM Na2C2O4: 150 mM NaCl and the measurements were performed at room temperature. During ISE measurements, the stir rate was adjusted to 1200 rpm to minimize the induction time for nucleation. OGM efficacy was measured by calculating the temporal depletion of calcium ion concentration (ppm range). The data was normalized by subtracting the concentration of the initial time point from each time point. The rate of depletion was calculated by measuring the initial slope of the crystal growth curve. The efficacy of synthetic and extracted hydroxycitrate was assessed using the percent inhibition, which was calculated by comparing the reduced slopes for each OGM relative to that of the control (i.e., absence of OGM). Prior to ISE measurements, the electrode was calibrated using a standard calcium solution (0.1 M, Orion Ion Plus), which was diluted with deionized water to three concentrations: 10^−4, 10^−3 and 10^−2 M. The ionic strength of each solution was adjusted using a standard solution (ISA, Thermo Scientific), which was added in a 1:50 volume ratio of ISA-to-standard.
Additionally, the inhibitory efficacy of synthetic and extracted HCA was observed. An ion selective electrode measures the free calcium ion in the solution in the course of experiments. The efficacy of both HCA molecules was measured by calculating the temporal depletion of free calcium ion concentration in COM growth solutions. The data was normalized by subtracting the concentration of the initial time point from all time points. The rate of depletion was calculated by measuring the initial slope of the crystal growth curve. The efficacy of the synthetic and extracted HCA was assessed using the percent inhibition, which was calculated by comparing the slopes for each molecule relative to that of the control (i.e., in the absence of HCA).

[2] = Upper limit of metastability of urine from patients with kidney stones; parameters: species or system human; details: for inhibition: calcium oxalate molar product at the point of crystallization: 8 urine samples, 37° C. for 4 hours
Description: The crystal inhibition activity of hydroxycitrate in human urine was determined using measurement of upper limit of metastability. For this experiment, 8 urine samples from patients with kidney stones were used. The urine was either spiked with a known amount of an inhibitor or spiked with saline as control. Ten aliquots of each urine sample were added to the wells of a microtiter plate and increasing amounts of oxalate was added. The plates were incubated at 37° C. for 4 hours and then turbidity was measured using an enzyme-linked immunosorbent assay (ELISA) plate reader. The well with the lowest amount of oxalate in which increased turbidity is noted is considered the crystallization point. Multiplying the calcium concentration of the urine and the oxalate concentration (original oxalate plus the amount of oxalate added) at the point of crystallization provides a rough measure of saturation at the point of crystallization.
The upper limit of metastability assay was also used to compare the inhibitory activity of hydroxycitrate to that of other tricarboxyllic acids: citrate, isocitrate, and tricarballylate. […] Each of tricarboxyllic acids was added to urine samples from stone forming patients to provide a final concentration of 2 mM. The data are expressed as the increase of the calcium oxalate molar product at crystallization compared to the control urine sample without any inhibitor added.

[3] = In situ AFM of growth hillocks on the (010) face of COM crystals (step velocity)
Description: (§1) Atomic force microscopy (AFM, Bruker Multimode 4) was used to study the COM crystal surface topography at a nanometer length scale. Samples were mounted on a disk covered with a thin layer of thermally curable epoxy (MasterBond EP21AOLV). The epoxy was partially cured in an oven for ca. 20 min at 60° C. prior to transferring the crystals obtained from bulk crystallization. The crystals were immobilized on the epoxy with the or [010] direction oriented normal to the specimen surface by placing the sample in an oven at 60° C. for two to three hours to completely cure the epoxy. The cantilevers used in this study were silicon nitride probes with gold reflex coating and a spring constant of 0.15 N/m (Olympus, TR800PSA). AFM was also employed to observe the kinetics of crystal growth in supersaturated calcium oxalate solutions by monitoring the velocity of step advancement on the (010) surface and (100) surface of COM crystals in real time. The experiment was designed to assess the effects of a range of concentration of hydroxycitrate on step growth using a fluid cell (Bruker, MTFML) to produce an environment that mimics in situ crystallization. The fluid cell had two ports for inlet and outlet flow to maintain constant supersaturation during AFM measurements. A silicon O-ring was used to ensure no liquid leakage would occur while solutions were being continuously replenished. A dual syringe pump (CHEMYX, Fusion 200) was used to flow the solutions into the fluid cell.
Hydroxycitrate has four stereoisomers, […], (2S,3R), (2S,3S), and (2R,3R) (FIG. 1). In order to investigate the interaction between hydroxycitrate and COM crystal surface at a molecular level, atomic force microscopy was utilized. The growth of hillocks by screw dislocation on the (010) face of COM crystals were measured in real time in the absence and in the presence of 0.1 μg/mL HCA (FIGS. 2A-2F). Growth hillocks on (010) face are bounded by {021} and {12-1} faces. […] The temporal advancement of steps (i.e., step velocity) of the growth hillock in the absence and in the presence of a wide range of concentration of HCA was measured (FIGS. 3A-3B). […] These phenomena are conventional modes of crystal growth inhibition. […] This phenomenon confirms the role of HCA as a dissolving agent.

[4] = In situ AFM of growth hillocks on the (100) surface of COM crystals
Description: as §1, with “The experiment was designed to assess the effects of a range of concentration of hydroxycitrate on step growth using a fluid cell (Bruker, MTFML) to produce an environment that mimics in situ crystallization. The fluid cell had two ports for inlet and outlet flow to maintain constant supersaturation during AFM measurements. A silicon O-ring was used to ensure no liquid leakage would occur while solutions were being continuously replenished. A dual syringe pump (CHEMYX, Fusion 200) was used to flow the solutions into the fluid cell.” left out
The interaction between hydroxycitrate and the (100) surface of COM crystals was also observed using atomic force microscopy. The growth of hillocks by screw dislocation on the (100) surface of COM crystals were measured in real time in the absence and in the presence of 0.25 μg/mL HCA (FIGS. 4A-4F). […]

[5] = Exposure of fully grown COM crystals to HCA: optical microscopy and AFM surface roughness; details: HCA (100 μg/mL) introduced at the end of crystallization period (3 days); optical micrographs
Description: Crystallization was carried out in a 20-mL glass vial by dissolving NaCl in deionized water then adding 0.7 mL of 10 mM CaCl2 stock solution which was prepared in advance. The sample vial was place in an oven set to 60° C. for one hour to ensure the crystallization was performed at 60° C. Subsequently 0.7 mL of […] Na2C2O4 stock solution was added to the solution dropwise while the solution was stirred at 400 rpm. To investigate the effect of hydroxycitrate […] COM crystallization, prepared hydroxycitrate stock solution was added to the solution dropwise at the end of three day crystallization period. A clean glass slide (ca. 1.3×1.3 cm^2) was placed at the bottom of the glass vial to readily collect the crystals prior to placing the vial in the oven. Final solution composition was set to be 0.7 mM CaCl2: 0.7 mM Na2C2O4: 150 mM NaCl and the amount of deionized water was adjusted to set the final volume to 10 mL. Crystallization was performed at 60° C. for three days without agitation. The glass slide was removed from the solution and dried at room temperature prior to analysis.
Morphology of COM crystals prepared in the absence and in the presence of OGMs were assessed and compared under optical microscope (Leica DM2500-M). Images were obtained in brightfield using reflectance. […]

[6] = parameters: species or system human; details: in vivo
Description: In order for hydroxycitrate to have a direct effect on calcium oxalate stone formation, it must be excreted in the urine. As preliminary evidence of renal excretion in humans, over the counter hydroxycitrate supplements (trade name Super CitraMax) was administered to a normal healthy subject at a dose of 4.3 mmoles of hydroxycitrate two times a day (total daily dose of 8.6 mmoles) for three days. The standard dose recommended by the manufacturer is 12.9 mmoles per day. On the third day a 24 hour urine collection was performed. Hydroxycitrate excretion was measured using ion chromatography. […] Peak 1 is urine citrate, peak 2 is hydroxycitrate. Using a standard curve created using a high purity hydroxycitrate standard, hydroxycitrate excretion was calculated to be 1.28 mmoles per day. Thus, approximately 15% of the oral hydroxycitrate dose was excreted in the urine.

[7] = 2 mM final concentration, comparison of tricarboxylic acids

Compound: (−)-Hydroxycitric acid calcium salt [extracted HCA]
- efficacy (percent inhibition) on COM crystallization ([1]; calcium salt): comparable
- efficacy (percent inhibition) on COM crystallization ([1]; listed as cHCA, calcium salt): comparable effect

Compound: O.O=C([O-])CC(O)(C(=O)[O-])C(O)C(=O)[O-].[K+].[K+].[K+] (stereo not shown) [synthetic HCA, potassium hydroxycitrate tribasic monohydrate]
- efficacy (percent inhibition) on COM crystallization ([1]; listed as sHCA, monohydrate): comparable effect
- efficacy (percent inhibition) on COM crystallization ([1]; monohydrate): comparable

Compound: O=C(O)CC(CC(=O)O)C(=O)O [tricarballylate, reference compound]
- difference of inhibition versus hydroxycitrate [2, 7]: reached statistical significance

Compound: O=C(O)CC(O)(C(=O)O)C(O)C(=O)O (stereo not shown) [HCA, hydroxycitrate]
- surface features of COM crystal ([3]; 0.1 μg/mL HCA): signs of dissolution; also recorded: dissolves the COM crystal surface
- step velocity of growth hillocks ([3]; <021> and <12-1> directions, low concentration of HCA (<0.06 μg/mL)): decrease; also recorded: slightly decreases
- step velocity of growth hillocks ([3]; high concentration of HCA (>0.15 μg/mL)): nearly zero; also recorded: ceases to zero
- step velocity of growth hillocks ([3]; intermediate concentration (0.06 μg/mL<CHCA<0.15 μg/mL)): negative velocity; also recorded: negative values
- surface features of COM crystal ([4]; 0.1 μg/mL HCA as printed): dissolves the COM crystal surface
- surface features of COM crystal ([4]; 0.25 μg/mL HCA): etch pits start to form at step edges; also recorded: rapid formation of etch pits at the edge of steps
- overall crystal morphology [5]: remained the same as that of the control; also recorded: maintained the same overall morphology
- fraction of the oral hydroxycitrate dose excreted in the urine [6]: approximately 15%
- inhibition: calcium oxalate molar product at the point of crystallization ([2]; 1 mM final concentration): greater inhibition than the control urine
- inhibition: calcium oxalate molar product at the point of crystallization ([2]; 2 mM final concentration): greater inhibition than the 1 mM hydroxycitrate
- increase of the calcium oxalate molar product at crystallization compared to the control urine [2, 7]: higher levels of inhibition compared to the other inhibitors
